# Results from patent US12109327B2, “Scaffolds from self-assembling tetrapeptides support 3D spreading, osteogenic differentiation and angiogenesis of mesenchymal stem cells” (KING ABDULLAH UNIVERSITY OF SCIENCE AND TECHNOLOGY, priority 2020, dated 2024).
# Non-standard residues stand in square brackets, D forms with d. Cha = N[C@@H](CC1CCCCC1)C(=O)O
# How the values were obtained:
# BM-MSCs [1] = assay: Alizarin red staining of mineralization; type: cell-based, human
# Excerpt: Alizarin red staining (ARS) is used to detect calcium deposition. The BM-MSCs cultured in the different scaffolds in the osteogenic medium are stained by Alizarin red to confirm the mineralization process during osteogenic differentiation (FIGS. 4b and S11b). […] The scale bar in FIGS. 31 and 32 is 100 μm. […] This indicates the presence of calcium deposits.
# After 14 days of culture, the media were removed and the cells were washed three times with PBS, fixed with 4% paraformaldehyde, and incubated for 15 min at room temperature.
# After 14 days of culture, the media was removed and then, the cells were washed three times with PBS and then fixed with 4% paraformaldehyde and the cells incubated for 15 minutes at room temperature. Then, the cells were washed three times with Milli-Q® water. Then the Milli-Q® water was removed and 1 mL of 40 mM Alizarin Red Staining (pH=4.2) was added to each well. The scaffolds were incubated at room temperature for 20-30 min with gentle shaking. […] For the quantification of Alizarin Red Staining, 100 μL of 10% acetic acid was added to each well in a 48-well plate and incubated at room temperature for 30 minutes with gentle shaking. […] Finally, 50 μL of each tube was transferred to a 96-well plate, and the absorbance at 405 nm was read with a plate reader (PHERAstar® FS, Germany)
# MSCs = assay: SEM of cell-matrix interaction; type: cell-based, human; details: after 14 days of culture
# Procedure: Scale bars are 5 and 10 μm, in the left and right panels respectively.
# SEM was also used to determine the cell-matrix interaction. First, the cells encapsulated in hydrogels were fixed in 2.5% glutaraldehyde for overnight (4° C.) and then washed using PBS. The samples were subsequently incubated in 1% osmium tetroxide for one hour and washed with water. Afterwards, the dehydration was done by immersing them in increasing concentrations of ethanol: 30, 50, 70, 90 and 100%, 15 min each step. Then, the samples were processed in critical point dryer. The dried samples were then mounted and coated with 5 nm Ir thickness.
# HUVECs = assay: In vitro angiogenesis study; type: cell-based, human
# Procedure: When bone deficiency occurs, it often causes blood vessel damage. Blood vessels provide the necessary components to repair the region of bone defects by transferring oxygen and nutrients.^107, 108 In one embodiment, the capability of IVFK and IVZK hydrogels to support angiogenesis is also evaluated using HUVECs and compared with collagen, which is an essential component of the ECM and is known to support the angiogenesis of endothelial cells,^23 because the capillary system is a crucial component in bone regeneration. Viability of HUVECs in IVZK scaffold after culturing for 24 h can be observed the bright field image as shown in FIG. 45 and confocal images as shown in FIG. 46. In FIG. 46, live cells are stained in green by Calcein-AM, while dead cells are stained red by Ethidium homodimer. In FIGS. 45 and 46, the scale bar is 100 μm. Furthermore, the angiogenesis ability of IVZK scaffold is also measured by the vessels junctions (FIG. 48), number of nodes (FIG. 49) and, in total vessels length (FIG. 47) for 5 different microscopic pictures. […] In FIG. 50, the scale bar is 100 μm.
# Peptide hydrogel or collagen was placed in a 24-well plate, and human umbilical vein endothelial cells (HUVECs) at 40,000 cells/well were added on top of the peptide gel or collagen. Cells were cultured in endothelial growth media for 24 h. Cells were then investigated using an inverted microscope, and images were analyzed by ImageJ using the Angiogenesis Analyzer.
# BM-MSCs [2] = assay: Osteocalcin immunostaining, confocal microscopy; type: cell-based, human
# Excerpt: (§1) In one embodiment, the BM-MSCs differentiate to the osteogenic lineage. The expression of osteocalcin is stained and imaged after 3 weeks of culture in osteogenic medium using confocal microscopy, as shown in FIG. 33. FIG. 33 is confocal images showing the expression of osteocalcin stained in green, and the cell nuclei stained in blue using DAPI. The scale bar in FIG. 33 is 100 μm. […] Additionally, the levels of alkaline phosphatase (ALP), an early osteogenic marker expressed by osteoblast cells, are also measured to confirm the commitment of BM-MSCs toward the osteogenic lineage. […] Furthermore, the ALP activity increased with time during the initial 2 weeks as an indicator of osteogenic differentiation. In FIG. 34, * means p<0.05, indicating statistical significance.
# Immunostaining was performed after each time point of culture. Briefly, cells were fixed by 4% paraformaldehyde solution for 30 min and incubated in a cold cytoskeleton buffer (3 mM MgCl2, 300 mM sucrose, and 0.5% Triton X-100 in PBS solution) for 5 min to permeabilize the membranes of the cells. The permeabilized cells were incubated in a blocking buffer solution, 5% fetal bovine serum (FBS), 0.1% Tween-20, and 0.02% […] in PBS for 30 min. […]
# [3] = Oscillatory rheological test of peptide hydrogel stiffness (storage modulus G′); type: physicochemical; details: for Storage modulus: 1 rad/s, 0.1% strain
# Procedure: Therefore, in one embodiment, the mechanical stiffness of each peptide hydrogel is assessed by the storage modulus (G′) at different concentrations.
# The oscillatory rheological test was performed to determine the mechanical properties of the peptide hydrogels. The peptide hydrogels were measured on a TA Ares G2 rheometer with an 8 mm parallel-plate geometry and a 1.5 mm gap distance at a temperature of 22° C. All of the hydrogels were made inside a Sigmacote®-coated glass ring with 9 mm inner diameter 19 h prior to measurement. Six replicates with a volume of 150 μL were prepared for each sample. […]
# BM-MSCs [4] = assay: Alkaline phosphatase (ALP) assay; type: cell-based, human
# Excerpt: as §1
# Alkaline phosphatase (ALP) was measured after 1 and 2 weeks of culture using an alkaline phosphatase substrate kit. At the end of each culture time, the scaffolds were washed by PBS and cells were lysed using 1% Triton X-100. Then, 80 μL of the cell lysate mixture was added to 50 μL of the para-nitrophenylphosphate (pNPP) substrate (5 mM) and incubated at room temperature for 2 h. The reaction was inhibited by the addition of a stop solution, and the absorbance was measured at 405 nm using a multimode plate reader (PHERAstar® FS, Germany).
# BM-MSCs [5] = assay: Alamar Blue cell viability assay; type: cell-based, human; details: compared to controls (2D and Matrigel)
# Procedure: In one embodiment, the hydrogels are screened for biocompatibility, cell attachment, and proliferation. Different concentrations of the peptides are tested for their biocompatibility of the cells within the constructs. […] Control is the cells incubated for 48 h without peptides.
# The hBM-MSCs were cultured in T75 flasks and incubated in a CO2 incubator maintained at 37° ° C. with 5% CO2. Culture media were replaced every 2-3 days until the cells reached 80% confluency. Confluent cells were trypsinized and subcultured, and cells at passage 3-6 were used for the study. For the 3D culture, different peptides were sterilized by exposure to UV light for 30 min. Then, 200 μL of 3D constructs in the 48-well plate was formed by mixing the peptide solution (IVZK=3 mg/mL (5.42 mM); IVFK=4 mg/mL (7.31 mM)) with 40,000 cells suspended in 2×PBS. Culture plates were incubated for 5 min at 37° C., and the complete medium was added carefully to the culture plates. […] The morphology, cell proliferation, and mineralization of the cells in each scaffold were analyzed and compared. […]
# A volume of 10 μL of Alamar blue stock solution was added to 100 μL of media in each well. […] The fluorescence was measured at an excitation wavelength of 530 nm, and the emission at 590 nm. The viability percentage was calculated against the control (2D).
# BM-MSCs [6] = assay: Quantitative RT-PCR of osteogenic genes; type: cell-based, human
# Procedure: Real-time polymerase chain reaction (PCR) values of the BM-MSC gene expressions of the bone morphogenetic protein (BMP-2) (FIG. 37), bone sialoprotein 2 (IBSP) (FIG. 35), osteopontin (OPN) (FIG. 38), osterix (OSX) (FIG. 39), and RUNX2 (FIG. 36) are evaluated after 30 days of culture. […] In FIGS. 35-39, * mens p<0.05 and ** means p<0.001, indicating statistical significance.
# The BM-MSCs were cultured on different scaffolds with an osteogenic medium for 4 weeks. Total RNA was extracted using the TRIzol™ reagent. RNA concentration and purity were measured using a NanoDrop® 8000 spectrophotometer (Thermo Fisher®). Complementary DNA (cDNA) was synthesized using the ImProm-II Reverse Transcription System. Primer sequences were taken from previously published studies and are summarized in below. Relative quantification was performed using the comparative CT (2-ΔΔCT) and normalized against glyceraldehyde 3-phosphate dehydrogenase (GAPDH), which was used as a housekeeping gene to calculate the fold change in gene expression. BM-MSCs on a 2D culture using basal media were used as controls.
# [7] = Vial inversion test: gelation time and critical gelation concentration; type: physicochemical; details: for critical gelation concentration (CGC): aqueous solution, 1× PBS
# Procedure: In one embodiment, an instant hydrogel formation can be observed when PBS buffer is added to the peptide solution. In one embodiment, the gelation time is determined using a vial inversion test performed at different peptide concentrations in 1×PBS to meet physiological conditions. FIG. 13 compares the gelation time of IVFK and IVZK at different concentration.
# The lyophilized peptide powders were dissolved in Milli-Q® water by vortexing into a clear solution at room temperature. Then, 10× phosphate-buffered saline (PBS) was added to the aqueous peptide solution at a final volume ratio of peptide solution to 10×PBS of 9:1. The vial inversion test was performed with different peptide concentrations to find the critical gelation concentration (CGC). To study the spatial structure of the peptide solution during the assembly process, two-dimensional (2D) NMR was performed using Bruker Avance III 600 MHz. Furthermore, scanning electron microscopy (SEM) was performed to visualize the morphology of the self-assembled nanofibers.
# [8] = hydrogel around 20 kPa (4 mg/mL) versus 50 kPa (8 mg/mL)
# [9] = 24 h, versus collagen positive control
substance,measurement,setting,value
Ac-Ile-Val-Phe-Lys-NH2 (Ac-IVFK-NH2) [aromatic self-assembling tetrapeptide forming hydrogel scaffold],calcium content (Alizarin red-S quantification),BM-MSCs [1]; [8],significantly higher calcium content than that at 50 kPa
same,Alizarin red-S (ARS) staining of mineral deposits,"BM-MSCs [1]; osteogenic medium, compared to the other scaffolds",most intense ARS staining
same,cell morphology by SEM,MSCs,elongated spindlelike morphology
same,junctions,HUVECs; [9],no significant difference
same,nodes,HUVECs; [9],no significant difference
same,total length of tubes,HUVECs; [9],no significant difference
same,network formation of HUVECs,HUVECs; after 24 h of culture,forms dense network structures
same,osteocalcin expression,BM-MSCs [2]; 3 weeks in osteogenic medium,comparable to those cultured in the collagen control group
same,osteocalcin expression,BM-MSCs [2]; 20 kPa scaffold compared to the others,more intense
same,stiffness,[3]; peptide concentration 4 mg/mL,around 20 kPa
same,stiffness,[3]; peptide concentration 8 mg/mL,~50 kPa
same,Storage modulus,[3]; peptide hydrogel 2 mg/mL,0.54 ± 0.06 kPa
same,Storage modulus,[3]; peptide hydrogel 3 mg/mL,7.03 ± 0.19 kPa
same,Storage modulus,[3]; peptide hydrogel 4 mg/mL,23.40 ± 0.88 kPa
same,Storage modulus,[3]; peptide hydrogel 6 mg/mL,35.79 ± 0.95 kPa
same,Storage modulus,[3]; peptide hydrogel 8 mg/mL,51.79 ± 4.73 kPa
same,ALP activity,"BM-MSCs [4]; after 7 days in osteogenic medium, versus collagen, p<0.05",Significantly higher ALP activity
same,ALP release,BM-MSCs [4]; [8],higher ALP release than that at 50 kPa
same,cell growth (Alamar Blue),BM-MSCs [5],significant increase in cell growth compared to both controls
same,expression of osteogenic genes OPN and BMP-2,BM-MSCs [6]; 20 kPa hydrogel versus 50 kPa scaffold,able to support cell differentiation much better than the 50 kPa scaffold
same,IBSP gene expression level,BM-MSCs [6]; after 30 days of culture,highest
same,OPN gene expression,BM-MSCs [6]; after 30 days of culture,upregulated
same,OSX expression level,BM-MSCs [6]; after 30 days of culture,low
same,Runx2 gene expression,BM-MSCs [6]; after 30 days of culture,higher
same,critical gelation concentration (CGC),[7],2 mg/mL
"Ac-Ile-Val-Cha-Lys-NH2 (Ac-IV[Cha]K-NH2; not fully specified; printed as Ac-Ile-Val-Cha-Lys-NH2) [IVZK, nonaromatic self-assembling tetrapeptide (Z = cyclohexylalanine) forming hydrogel scaffold]",cell morphology by SEM,MSCs,elongated spindlelike morphology
same,"G′ value, IVZK versus IVFK",[3]; at the same concentration,higher G′ value compared to IVFK
same,Storage modulus,[3]; peptide hydrogel 2 mg/mL,10.00 ± 0.12 kPa
same,Storage modulus,[3]; peptide hydrogel 3 mg/mL,17.21 ± 1.38 kPa
same,Storage modulus,[3]; peptide hydrogel 4 mg/mL,29.77 ± 1.19 kPa
same,Storage modulus,[3]; peptide hydrogel 6 mg/mL,43.03 ± 2.81 kPa
same,Storage modulus,[3]; peptide hydrogel 8 mg/mL,75.21 ± 4.08 kPa
same,OPN gene expression,BM-MSCs [6]; after 30 days of culture,downregulated
same,critical gelation concentration (CGC),[7],2 mg/mL
same,gelation time,"[7]; different peptide concentrations in 1×PBS, IVZK versus IVFK","less time to form the hydrogel, compared to IVFK"
